Results as given in article PMC11625327, “Molecular determinants of neuropeptide-mediated activation mechanisms in tachykinin NK1 and NK2 receptors” (The Journal of Biological Chemistry, 2024).

Legend:
Assay type in all cases: cell-based
NK1R F264Y M291F [1] = biological target: T1, NK1R F264Y M291F (Homo sapiens, UniProt P25103, F264Y/M291F); experiment: BRET-based cAMP assay (Gs); conditions: COS-7, COS7 cells, CAMYEL BRET sensor, four-parameter fit, mean ± SEM of three independent experiments
T1 construct: host or cells: COS7
Procedure: (§1) COS7 cells were tested monthly for mycoplasma and kept negative. COS7 cells were plated in either clear, white, or white with clear bottom 96-well plates that were coated with poly-D-lysine (Sigma-Aldrich) 30 min prior to cell seeding (20,000 cells/well). The following day plates were transiently transfected using calcium precipitation with 200 ng/well DNA in a culture medium with the addition of 100μM (final concentration) chloroquine. Transfection was stopped 5 h later with the addition of a fresh maintenance medium. Fig. […] The intracellular level of cAMP was monitored in real-time using BRET. This was achieved by implementing a construct consisting of a cAMP binding protein (exchange protein activated by cAMP [EPAC]) which has been flanked by a BRET pair consisting of Rluc and yellow fluorescent protein. This construct is called CAMYEL (cAMP sensor using yellow fluorescent protein-EPAC-Rluc) and enables cAMP production to be sensed as EPAC changes conformation in response to increasing levels of cAMP, ultimately resulting in a loss of BRET signal. […] The BRET signal was calculated as the ratio of emission intensity at 535 nm (citrine) to the emission intensity at 475 nm (luciferase). […] All dose-response curves have been calculated using Prism 10 software (GraphPad Software, www.graphpad.com) nonlinear regression with four parameters. […]

NK1R M291F [2] = biological target: T2, NK1R M291F (Homo sapiens, UniProt P25103, M291F); experiment: BRET-based cAMP assay (Gs); conditions: COS-7, COS7 cells, CAMYEL BRET sensor, four-parameter fit, mean ± SEM of three independent experiments
T2 construct: host or cells: COS7
Procedure: as §1

NK1R F264Y = biological target: T3, NK1R F264Y (Homo sapiens, UniProt P25103, F264Y); experiment: IP3 accumulation assay (Gq); conditions: COS-7, COS7 cells, [3H]inositol, 10 mM LiCl, 150 min 37 °C, mean ± SEM of three independent experiments
T3 construct: host or cells: COS7
Procedure: (§2) COS7 cells were tested monthly for mycoplasma and kept negative. COS7 cells were plated in either clear, white, or white with clear bottom 96-well plates that were coated with poly-D-lysine (Sigma-Aldrich) 30 min prior to cell seeding (20,000 cells/well). The following day plates were transiently transfected using calcium precipitation with 200 ng/well DNA in a culture medium with the addition of 100μM (final concentration) chloroquine. Transfection was stopped 5 h later with the addition of a fresh maintenance medium. Fig. […] COS7 cells seeded in clear 96-well plates were incubated with 0.5 μCi/ml myo [3H]inositol (Perkin Elmer) in 100 μl growth medium overnight following the transfection. The subsequent day cells were washed twice with 200 μl/well HBSS (GIBCO, Life Technologies) and preincubated for 5 min at 37 °C with 100 μl/well HBSS buffer supplemented with 10 mM LiCl. Ligand addition was followed by 150 min incubation at 37 °C. To stop ligand incubation, cells were lysed with 40 μl 10 mM formic acid followed by 30 min incubation on ice. Thirty five microliters of the lysate was transferred to white 96-well plates together with 60 μl of 1:8 diluted YSi SPA scintillation beads (Perkin Elmer). Plates were sealed and vigorously shaken for 15 min, followed by 5 min centrifugation at 1500 rpm. Measurements (scintillation) were recorded on a Microbeta (PerkinElmer) after a 4 h delay and determinations were made in duplicates. All dose-response curves have been calculated using Prism 10 software (GraphPad Software, www.graphpad.com) nonlinear regression with four parameters. All data are shown as mean ± SEM unless stated otherwise and consist of two technical replicates from three biological replicates.

NK1R F264Y M291F [3] = biological target: T1, NK1R F264Y M291F; experiment: IP3 accumulation assay (Gq); conditions: COS-7, COS7 cells, [3H]inositol, 10 mM LiCl, 150 min 37 °C, mean ± SEM of three independent experiments
Procedure: as §2

NK1R M291F [4] = biological target: T2, NK1R M291F; experiment: IP3 accumulation assay (Gq); conditions: COS-7, COS7 cells, [3H]inositol, 10 mM LiCl, 150 min 37 °C, mean ± SEM of three independent experiments
Procedure: as §2

T1 sequence (P25103 whole entry F264Y/M291F): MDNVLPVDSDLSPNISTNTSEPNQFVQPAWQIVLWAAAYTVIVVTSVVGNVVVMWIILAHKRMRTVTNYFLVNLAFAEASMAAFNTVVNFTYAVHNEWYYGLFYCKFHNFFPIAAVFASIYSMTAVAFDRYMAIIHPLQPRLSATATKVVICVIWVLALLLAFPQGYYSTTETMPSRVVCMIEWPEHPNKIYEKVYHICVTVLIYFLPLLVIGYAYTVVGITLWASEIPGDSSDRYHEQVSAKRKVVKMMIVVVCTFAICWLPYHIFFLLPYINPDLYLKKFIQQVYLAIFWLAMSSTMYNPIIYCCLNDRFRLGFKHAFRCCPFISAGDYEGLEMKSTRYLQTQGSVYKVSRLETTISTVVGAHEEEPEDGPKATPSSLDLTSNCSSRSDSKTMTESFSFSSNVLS
T2 sequence (P25103 whole entry M291F): as the sequence (P25103 whole entry F264Y/M291F) above, with Y264F counted along it
T3 sequence (P25103 whole entry F264Y): as the sequence (P25103 whole entry F264Y/M291F) above, with F291M counted along it

CSCC[C@H](NC(=O)[C@H](CC(C)C)NC(=O)CNC(=O)[C@@H](NC(=O)[C@H](Cc1ccccc1)NC(=O)[C@H](CO)NC(=O)[C@H](CC(=O)O)NC(=O)[C@@H](NC(=O)[C@H](CCCCN)NC(=O)[C@@H](N)Cc1c[nH]cn1)[C@@H](C)O)C(C)C)C(N)=O [NKA, neurokinin A]
Emax (NK1R F264Y M291F [1]): 125% | Emax (NK1R M291F [2]): 99.9% | Emax (NK1R F264Y): 105 ± 6.3% | Emax (NK1R F264Y M291F [3]): 102 ± 11% | Emax (NK1R M291F [4]): 102 ± 12.7%
